The values that follow come from patent US12122799B2, “Antibiotics for veterinary staphylococcal infections” (THE GEORGE WASHINGTON UNIVERSITY, A CONGRESSIONALLY …, priority 2018, dated 2024).

For one assay, the system named is S. schleiferi. In words: Growth inhibition of Staphylococcus species assay. It is filed as cell-based. The note with it: read-out: Bacterial IC50 (Mean ± SD) S.s.
Assay [1] has as its system S. chromogenes. In words: Growth inhibition of Staphylococcus species assay. Type of assay: cell-based. The following applies: read-out: Bacterial IC50 (Mean ± SD) S.c.
Assay [2] concerns the target recombinant DXR enzyme. In words: DXR enzyme activity assay. It is filed as biochemical. The note with it: read-out: S. schleiferi IC50 (mean ± SD).
Assay [3] deals with recombinant DXR enzyme. Put plainly: DXR enzyme activity assay. It is filed as biochemical. The note with it: recombinant S. chromogenes DXR, n=3; read-out: S. chromogenes IC50 (mean ± SD).
Assay [4] deals with S. pseudintermedius. In words: Growth inhibition of Staphylococcus species assay. The following applies: read-out: Bacterial IC50 (Mean ± SD) S.p. Type of assay: cell-based.
Assay [5] relates to S. pseudintermedius. It is filed as cell-based.
The subject of assay [6] is S. chromogenes. Type of assay: cell-based.
The next assay concerns S. aureus. It is filed as cell-based. The following applies: read-out: Bacterial IC50 (Mean ± SD) S.a.
A further assay has as its system S. schleferi. It is filed as cell-based, S. schleiferi.
The subject of the next assay is P. falciparum. The note with it: read-out: inhibition of P. falciparum growth IC50; cited from earlier work.
Where [7] appears, read: S. schleiferi growth, LB media, 20 h, OD600.

SMILES strings stand for the structures. Like-named read-outs stand apart in the source and are kept apart here.

For `CC(C)(C)C(=O)OCOP(=O)(/C=C/CN(O)C(=O)CCCc1ccccc1)OCOC(=O)C(C)(C)C` [JXW-168], the IC50 with S. schleiferi (setting [7]) stood at 8.7 µM.

Regarding `CC(C)(C)C(=O)OCOP(=O)(/C=C/CN(O)C(=O)c1ccccc1)OCOC(=O)C(C)(C)C` [JXW-189], the IC50 with S. schleiferi (setting [7]) is 1.3 µM.

In the case of `COCOCOCOP(=O)(/C=C/CN(O)C=O)OCOCOCOC` [JXW-573], the IC50 worked out at 0.03 µM with S. schleiferi (setting [7]); 0.04 µM with S. chromogenes [1] (S. chromogenes growth, LB media, 20 h, OD600); 12.6 ± 1.88 µM on recombinant DXR enzyme [2] (recombinant S. schleiferi DXR, n=3); 15.2 ± 2.36 µM on recombinant DXR enzyme [3]; 0.21 ± 0.04 µM in the assay on S. pseudintermedius [4] (S. pseudintermedius growth, LB media, 20 h, OD600).

As for `CC(=O)N(O)C/C=C/P(=O)(OCOC(=O)c1ccccc1)OCOC(=O)c1ccccc1` [KMH-102], the IC50 in the assay with S. schleiferi (setting [7]) was determined as 0.21 ± 0.05 µM.

Consider `O=CN(O)CCCP(=O)(O)O` [fosmidomycin], for which the IC50 in the assay with S. schleiferi was 0.78 ± 0.13 µM; in the assay on S. chromogenes [1], 0.31 ± 0.01 µM; at recombinant DXR enzyme [2], 0.67 ± 0.06 µM; in the assay with S. aureus, more than 100 µM; in the assay on S. pseudintermedius [4] it was 0.31 ± 0.04 µM; with P. falciparum, 0.09 to 0.35 µM. Moreover, the “bacteriostatic or bactericidal in S. pseudintermedius” value in the assay with S. pseudintermedius [5] is listed as “bacteriostatic”. The “bacteriostatic or bactericidal in S. chromogenes” value with S. chromogenes [6] is “bacteriostatic”. Besides, the “bacteriostatic or bactericidal in S. schleferi” value with S. schleferi is on record as “bacteriostatic”.
